From patent US10604580B2, “Combination therapies with anti-CD38 antibodies” (Janssen Biotech, Inc., priority 2014, dated 2020)

Key:
[1] = tested on: luciferase-transduced XG1 multiple myeloma cells; test: Humanized multiple myeloma mouse model, tumor growth by BLI; format: in vivo, RAG2−/−γc−/− mice; conditions: for tumor progression (BLI): single agent plus PBMC-T, daratumumab 8 mg/kg i.p., ATRA 10 mg/kg i.p., weekly BLI for 5 weeks
Description: Hybrid scaffolds consisting of three 2-3 mm biphasic calcium phosphate particles were coated in vitro with human mesenchymal stromal cells (MSCs; 2×10^5 cells/scaffold). After a week of in vitro culture in a osteogenic medium, humanized scaffolds were implanted subcutaneously into RAG2^−/−γc^−/− mice, as described previously (Groen et al., Blood. 19; 120:e9-e16, 2012; de Haart et al., Clin. Cancer Res. 19:5591-5601, 2013).
Eight weeks after implantation, mice received a sublethal irradiation dose (3 Gy, 200 kV, 4 mA) and luciferase-transduced XG1 cells were injected directly into the scaffold (1×10^6 cells/scaffold). […] PBMC-T were prepared by Ficoll-Hypaque density-gradient centrifugation of buffy coats, and subsequent depletion of T cells by CD3-beads using the Easy Sep™-technology ([…] Technologies). Tumor growth was monitored by weekly BLI measurements as described previously (Groen et al., Blood. 19; 120:e9-e16, 2012). All animal experiments were conducted after acquiring permission from the local ethical committee for animal experimentation and were in compliance with the Dutch Animal Experimentation Act. The statistical differences between the different treatment groups in the mice experiments were calculated using a Mann-Whitney test. P-values below 0.05 were considered significant.
Luciferase-transduced XG1 multiple myeloma cells developed into aggressive tumors in immunodeficient RAG2^−/−γc^−/− mice in a humanized bone marrow microenvironment generated by subcutaneous implantation of MSC-coated ceramic scaffolds. […] To follow the outgrowth of the tumor, BLI was performed weekly for 5 weeks.

[2] = tested on: primary MM cells (BM-MNCs from 26 MM patients); test: Ex vivo ATRA exposure of primary MM cells, surface antigen expression by flow cytometry; format: cell-based, human; conditions: 10 nM ATRA, 48 hours
Experimental: (§1) Expression of several cell surface proteins was determined by flow cytometric analysis using FITC-, PE-, Per-CP-, or APC-conjugated monoclonal antibodies. Anti-CD38, anti-CD138, and anti-CD56 were purchased from Beckman Coulter; anti-CD3, anti-CD16, anti-CD55, anti-CD59 from BD Biosciences; and anti-CD46 from Biolegend. Flow cytometry was done using a FACS-Calibur device (Becton Dickinson); the data were analyzed using the CellQuest software.
Ex vivo ATRA exposure (10 nM, 48 hours) of primary MM cells from 26 patients was also studied. In these experiments, BM-MNCs from 26 MM patients were incubated with RPMI-1640 medium alone or with 10 nM ATRA for 48 hours, incubated at 4° C. for 20 min with FITC-conjugated CD38 antibody (Beckman Coulter) and then harvested to determine CD38 expression by flow cytometry. Flow cytometric analyses were performed using a FACS-Calibur device (Becton Dickinson); the data were analyzed using the CellQuest software.

[3] = tested on: primary MM cells derived from 16 patients; test: Complement-inhibitory protein expression on primary MM cells by flow cytometry; format: cell-based, human; conditions: 10 nM ATRA, 48 h
Experimental: as §1
(§2) The effect of ATRA on effector cells was evaluated. […] In the experiments, cells were cultured at 37° C. with RPMI-1640 medium with or without 10 nM ATRA 10 nM for 48 h. Cells were then incubated at 4° C. for 20 min with the appropriate conjugated antibodies panel. Flow cytometric analyses were performed using a FACS-Calibur device (Becton Dickinson); the data were analyzed using the CellQuest software.

UM9 cells [4] = test: CD38 expression by flow cytometry, UM9; format: cell-based, human; conditions: ATRA
Experimental: as §1
(§3) Interaction of ATRA with nuclear retinoic acid receptors results in altered expression of target genes including induction of CD38 expression (Malavasi F. J Leukoc Biol 90:217-219, 2011; Drach et al., Cancer Res 54:1746-1752, 1994). Therefore, effect of ATRA on MM cell lines RPMI8226, UM9, and XG1 was studied. MM cells were incubated with RPMI-1640 medium alone or with ATRA ranging from 0-25 nM for 48 hours (FIG. 1A) or were incubated with 10 nM ATRA for 24, 48, 72 or 96 hours (FIG. 1B) and then harvested to determine CD38 expression by flow cytometry using a FACS-Calibur device (Becton Dickinson) and anti-CD38 antibody (Beckman Coulter). The data were analyzed using the CellQuest software.

XG-1 cells [5] = test: BLI-based CDC assay, XG-1; format: cell-based, human; conditions: 10 nM ATRA 48 hours vs solvent control
[6] = tested on: MM cell lines RPMI8226, UM9, and XG1; test: CD38 expression on MM cell lines by flow cytometry (pooled statement); format: cell-based, human
Experimental: as §1, §3

XG-1 cells [7] = test: CD38 expression by flow cytometry, XG-1; format: cell-based, human; conditions: ATRA
Experimental: as §1, §3

primary MM cells [8] = test: Flow cytometry-based ex vivo ADCC assay in BM-MNC; format: cell-based, human; conditions: for ADCC, median: 10 μg/mL daratumumab, pooled patients
Experimental: Freshly isolated BM-MNCs, containing 2-57% malignant plasma cells as determined by flow cytometry, were immediately used in ex vivo experiments. […] Sample viability at incubation was more than 98%, as assessed by using ToPro-3 (Invitrogen/Molecular Probes). […] Pooled human serum (10%) was used as a source of complement. The survival of primary CD138^+ MM cells in the BM-MNCs was determined by flow-cytometry as previously described (van der Veers et al., Haematologica 96:284-290, 2011; van der Veers et al., Blood Cancer J 1:e41, 2011). Surviving MM cells were enumerated by single platform flow-cytometric analysis of CD138^+ cells (with CD138-PE (Beckman Coulter, Miami, Fla., USA)) in the presence of Flow-Count Fluorospheres (Beckman Coulter) to determine absolute numbers of cells.

UM9 cells [9] = test: BLI-based ADCC assay, UM9; conditions: 10 nM ATRA 48 hours vs solvent control
Experimental: (§4) For MM cell lines, CDC and ADCC were assessed using bioluminescence imaging (BLI) based ADCC and CDC assays as described above. For primary MM cells, CDC and ADCC were assessed using Flow cytometry-based ex vivo ADCC and CDC assays in BM-MNC as described above. […] Isotype control was added at 10 μg/ml, and 10% heat-inactivated serum was used as control for CDC.

XG-1 cells [10] = test: BLI-based ADCC assay, XG-1; conditions: 10 nM ATRA 48 hours vs solvent control
Experimental: as §4

RPMI8226 cells [11] = test: BLI-based ADCC assay, RPMI8226; conditions: 10 nM ATRA 48 hours
Experimental: as §4

[12] = tested on: RPMI8226, L363 and XG-1 cells; test: Complement-inhibitory protein expression on MM cell lines by flow cytometry; format: cell-based, human; conditions: 0-25 nM ATRA, 48 hour
Experimental: as §1, §2

[13] = tested on: PBMCs from healthy donors; human MM cell lines L363-CD38, LME-1, RPMI8226 and UM9; test: Effect of ATRA on effector cells (PBMC-induced ADCC); format: cell-based; conditions: data not shown
Experimental: as §2

RPMI8226 cells [14] = test: CD38 expression by flow cytometry, RPMI8226; format: cell-based, human; conditions: ATRA
Experimental: as §1, §3

RPMI8226 cells [15] = test: BLI-based CDC assay, RPMI8226; format: cell-based, human; conditions: 10 nM ATRA 48 hours
primary MM cells [16] = test: Flow cytometry-based ex vivo CDC assay in BM-MNC; format: cell-based, human; conditions: for CDC, median: 10 μg/mL daratumumab, pooled patients
Experimental: Freshly isolated BM-MNCs, containing 2-57% malignant plasma cells as determined by flow cytometry, were immediately used in ex vivo experiments. […] Pooled human serum (10%) was used as a source of complement. The survival of primary CD138^+ MM cells in the BM-MNCs was determined by flow-cytometry as previously described (van der Veers et al., Haematologica 96:284-290, 2011; van der Veers et al., Blood Cancer J 1:e41, 2011). Surviving MM cells were enumerated by single platform flow-cytometric analysis of CD138^+ cells (with CD138-PE (Beckman Coulter, Miami, Fla., USA)) in the presence of Flow-Count Fluorospheres (Beckman Coulter) to determine absolute numbers of cells.

[17] = tested on: MM cell lines XG-1, RPMI8226 and UM9; test: BLI-based ADCC and CDC assays, ATRA alone; format: cell-based, human; conditions: 10 nM ATRA alone
[18] = after 10 nM ATRA pretreatment 48 hours

## CC1=C(/C=C/C(C)=C/C=C/C(C)=C/C(=O)O)C(C)(C)CCC1 [ATRA, all-trans retinoic acid]
[1]; daratumumab 8 mg/kg plus ATRA 10 mg/kg plus PBMC-T vs daratumumab plus PBMC-T
  effect of ATRA on anti-MM effect of daratumumab: significantly enhanced
[1]
  tumor progression (BLI): no effect
[2]
  CD138 expression levels, median increase: 2.0 fold
  expression of CD56: no significant changes
  expression of HLA A/B/C: no significant changes
[2]; 26 patients
  CD38 expression increase, range: 1.0-26.5 fold
  CD38 expression, median increase: 1.7 fold
[3]
  CD46 expression levels: did not significantly affect
[3]; P=0.0047
  expression of CD59, mean reduction: 37.5%
[3]; P=0.019
  expression of CD55, mean reduction: 21.3%
UM9 cells [4]
  enhanced CD38 expression: 4.4 fold
XG-1 cells [5]
  effect of ATRA pretreatment on daratumumab-mediated CDC: significantly increased
[6]; 10 nM ATRA (minimum sufficient), 48 hours, RPMI8226, UM9, XG1
  increase in CD38 expression: 1.9-4.4 fold
[6]; 10 nM ATRA for 24, 48, 72 or 96 hours
  time of maximum enhancement of CD38 expression: 48 h
[6]; doses above 10 nM up to 25 nM, 48 hours
  CD38 expression at higher doses of ATRA: did not further enhance
XG-1 cells [7]
  enhanced CD38 expression: 2.9 fold
Primary MM cells [8]; ATRA pretreatment 48 hours
  patients with significant increase in susceptibility to daratumumab-mediated ADCC: 8 out of 11
Primary MM cells [8]; most primary MM cells tested
  effect of ATRA on daratumumab-mediated ADCC: induced daratumumab-mediated ADCC
UM9 cells [9]
  effect of ATRA pretreatment on daratumumab-mediated ADCC: significantly increased
XG-1 cells [10]
  effect of ATRA pretreatment on daratumumab-mediated ADCC: significantly increased
RPMI8226 cells [11]
  effect of ATRA pretreatment on daratumumab-mediated ADCC: no significant improvement
[12]
  CD46 expression levels: reduced expression levels
  CD55 expression levels: reduced expression levels
  CD59 expression levels: reduced expression levels
[13]
  effect on ability of PBMCs to induce ADCC: no effect or minimal effect
RPMI8226 cells [14]
  upregulation of CD38 expression: 1.9 fold
RPMI8226 cells [15]
  effect of ATRA pretreatment on daratumumab-mediated CDC: no significant improvement
Primary MM cells [16]; ATRA pretreatment 48 hours
  patients with significant increase in susceptibility to daratumumab-mediated CDC: 13 out of 16
Primary MM cells [16]; for example patients 1, 4, 8, 12, 13, 15 and 16
  effect of ATRA on daratumumab-mediated CDC in cells not responsive to daratumumab alone: induced daratumumab-mediated CDC
Primary MM cells [16]; for example patients 6, 7 and 14
  effect of ATRA enhancing daratumumab-mediated CDC in some patient samples: no additional effect
[17]
  MM cell lysis by ATRA alone: no MM cell lysis

## daratumumab: anti-CD38 antibody, IgG1/κ, VH SEQ ID NO: 4, VL SEQ ID NO: 5, heavy chain SEQ ID NO: 12, light chain SEQ ID NO: 13
[1]
  tumor progression (BLI): markedly slowed tumor progression
Primary MM cells [8]; [18]
  ADCC, median: 39.5%
Primary MM cells [8]; without ATRA pretreatment
  ADCC, median: 25.1%
Primary MM cells [16]; [18]
  CDC, median: 43.9%
Primary MM cells [16]; without ATRA pretreatment
  CDC, median: 16.1%
